ChEMBL document CHEMBL3832083

Assay: clinical
Conditions: human, in vivo, po

Nc1nc2ccc(OC(F)(F)F)cc2s1 [RILUZOLE]
fraction unbound: 0.04
